The values that follow come from patent US20250034135A1, “ANTI-APOPTOTIC PROTEIN BCL-2 INHIBITOR, PHARMACEUTICAL COMPOSITION AND USES THEREOF” (HANGZHOU HEALZEN THERAPEUTICS CO., LTD., priority 2021, published 2025).

By IC50 is commonly meant the concentration at which inhibition is half-maximal.

Chain of BCL2 (P10415 whole entry): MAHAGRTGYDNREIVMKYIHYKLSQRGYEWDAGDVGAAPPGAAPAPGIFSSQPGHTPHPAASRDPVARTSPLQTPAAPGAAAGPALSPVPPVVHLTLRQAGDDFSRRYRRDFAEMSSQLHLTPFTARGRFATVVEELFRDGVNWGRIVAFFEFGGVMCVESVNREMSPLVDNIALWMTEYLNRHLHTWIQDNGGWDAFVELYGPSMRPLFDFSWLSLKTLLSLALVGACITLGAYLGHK

This assay addresses BCL2 (Homo sapiens (Human), UniProt P10415). Kind of assay: Molecular level activity test of anti-apoptotic protein BCL2 (HTRF, binding to Bim peptide). Conditions: HTRF, binding of BCL2 to Bim peptide; read-out: BCL2 nM (inhibitory activity, IC50). On the procedure: The detection of the binding ability between anti-apoptotic protein BCL2 and pro-apoptotic protein Bim was performed using Homogeneous Time-Resolved Fluorescence technology. The reaction of this method occurred in a white shallow 384-well plate, with a total reaction volume of 10 μL. Specifically, it included 2 μL of the compound to be tested (2% DMSO), 4 μL His-tagged recombinant protein, and 4 μL Biotin-tagged BIM protein peptide. After 1 hour of reaction, 5 μL of each Anti-His and streptavidin-tagged XL665 antibody diluents diluted with a detection buffer were added. After incubating at room temperature for 4 hours, the values were read using the Envision multifunctional microplate reader to detect the effect of the compound to be tested on the binding ability of BCL2 to Bim protein peptides.
`CC(C)c1ccccc1[C@@H]1CCCN1C1CC2(CCN(c3cc(Oc4cnc5[nH]ccc5c4)c(C(=O)NS(=O)(=O)c4cc([N+](=O)[O-])c(NCC5(F)CCN(CC(F)(F)F)CC5)c5[nH]cnc45)cn3)CC2)C1` [compound 031, (S)-4-((1H-pyrrolo[2,3-b]pyrid-5-yl)oxy)-N-((7-(((4-fluoro-1-(2,2,2-trifluoroethyl)piperid-4-yl)methyl)amino)-6-nitro-1H-benzo[d]imidazol-4-yl)sulfonyl)-6-(2-(2-(2-isopropylphenyl)pyrrolidin-1-yl)-7-azaspiro[3.5]non-7-yl) nicotinamide]: the IC50 is below 0.01 µM.

For the compound `CC(C)c1ccccc1[C@@H]1CCCN1C1CC2(CCN(c3cc(Oc4cnc5[nH]ccc5c4)c(C(=O)NS(=O)(=O)c4cc([N+](=O)[O-])c(NCC5(F)CCN(CC(F)(F)F)CC5)c5[nH]cnc45)cc3F)CC2)C1` [compound 032, (S)-2-((1H-pyrrolo[2,3-b]pyrid-5-yl)oxy)-5-fluoro-N-((7-(((4-fluoro-1-(2,2,2-trifluoroethyl)piperid-4-yl)methyl)amino)-6-nitro-1H-benzo[d]imidazol-4-yl)sulfonyl)-4-(2-(2-(2-isopropylphenyl)pyrrolidin-1-yl)-7-azaspiro[3.5]non-7-yl)benzamide], the IC50 is below 0.01 µM.

Consider `CC(C)c1ccccc1[C@@H]1CCCN1C1CC2(CCN(c3cc(Oc4cnc5[nH]ccc5c4)c(C(=O)NS(=O)(=O)c4cc([N+](=O)[O-])c(NCC5CCC(N(C)C)CC5)c5[nH]cnc45)cn3)CC2)C1` (stereo partly drawn) [compound 033, 4-((1H-pyrrolo[2,3-b]pyrid-5-yl)oxy)-N-((7-((((1S,4S)-4-(dimethylamino)cyclohexyl)methyl)amino)-6-nitro-1H-benzo[d]imidazol-4-yl)sulfonyl)-6-(2-((S)-2-(2-isopropylphenyl)pyrrolidin-1-yl)-7-azaspiro[3.5]non-7-yl) nicotinamide], for which the IC50 was below 0.01 µM.

As for `CC(C)c1ccccc1[C@@H]1CCCN1C1CC2(CCN(c3cc(Oc4cnc5[nH]ccc5c4)c(C(=O)NS(=O)(=O)c4cc([N+](=O)[O-])c(NCC5CCC(N(C)C)CC5)c5[nH]cnc45)cc3F)CC2)C1` (stereo partly drawn) [compound 034, 2-((1H-pyrrolo[2,3-b]pyrid-5-yl)oxy)-N-((7-((((1S,4S)-4-(dimethylamino)cyclohexyl)methyl)amino)-6-nitro-1H-benzo[d]imidazol-4-yl)sulfonyl)-5-fluoro-4-(2-((S)-2-(2-isopropylphenyl)pyrrolidin-1-yl)-7-azaspiro[3.5]non-7-yl)benzamide], the IC50 is below 0.01 µM.

For `CC(C)c1ccccc1[C@@H]1CCCN1C1CC2(CCN(c3cc(Oc4cnc5[nH]ccc5c4)c(C(=O)NS(=O)(=O)c4cc([N+](=O)[O-])c(NC[C@H]5CC[C@](C)(O)CC5)c5c4ncn5C)cn3)CC2)C1` [compound 035, 4-((1H-pyrrolo[2,3-b]pyrid-5-yl)oxy)-N-((7-((((1r,4r)-4-hydroxy-4-methylcyclohexyl)methyl)amino)-1-methyl-6-nitro-1H-benzo[d]imidazol-4-yl)sulfonyl)-6-(2-((S)-2-(2-isopropylphenyl)pyrrolidin-1-yl)-7-azaspiro[3.5]non-7-yl) nicotinamide], the half-maximal inhibitory concentration (IC50) was below 0.01 µM.

On to `CC(C)c1ccccc1[C@@H]1CCCN1C1CC2(CCN(c3cc(Oc4cnc5[nH]cc(F)c5c4)c(C(=O)NS(=O)(=O)c4cc([N+](=O)[O-])c(NC[C@H]5CC[C@](C)(O)CC5)c5[nH]cnc45)cn3)CC2)C1` [compound 037, 4-((3-fluoro-1H-pyrrolo[2,3-b]pyrid-5-yl)oxy)-N-((7-((((1r,4r)-4-hydroxy-4-methylcyclohexyl)methyl)amino)-6-nitro-1H-benzo[d]imidazol-4-yl)sulfonyl)-6-(2-((S)-2-(2-isopropylphenyl)pyrrolidin-1-yl)-7-azaspiro[3.5]non-7-yl) nicotinamide], for which the half-maximal inhibitory concentration (IC50) is below 0.01 µM.

Turning to `COc1ccc(CN2CCN(C3CC4(CCN(c5ccc(C(=O)NS(=O)(=O)c6cc([N+](=O)[O-])c(NC[C@H]7CC[C@](C)(O)CC7)c7[nH]cnc67)c(Oc6cnc7[nH]ccc7c6)c5)CC4)C3)C(c3ccccc3C(C)C)C2)cc1` (some centres unmarked) [compound 039, 2-((1H-pyrrolo[2,3-b]pyrid-5-yl)oxy)-N-((7-((((1r,4r)-4-hydroxy-4-methylcyclohexyl)methyl)amino)-6-nitro-1H-benzo[d]imidazol-4-yl)sulfonyl)-4-(2-(2-(2-isopropylphenyl)-4-(4-methoxybenzyl)piperazin-1-yl)-7-azaspiro[3.5]non-7-yl)benzamide], the IC50 was below 0.01 µM.

In the case of `COc1ccc(CN2CCN(C3CC4(C3)CN(c3ccc(C(=O)NS(=O)(=O)c5cc([N+](=O)[O-])c(NC[C@H]6CC[C@](C)(O)CC6)c6[nH]cnc56)c(Oc5cnc6[nH]ccc6c5)c3)C4)C(c3ccccc3C(C)C)C2)cc1` (some centres unmarked) [compound 040, 2-((1H-pyrrolo[2,3-b]pyrid-5-yl)oxy)-N-((7-((((1r,4r)-4-hydroxy-4-methylcyclohexyl)methyl)amino)-6-nitro-1H-benzo[d]imidazol-4-yl)sulfonyl)-4-(6-(2-(2-isopropylphenyl)-4-(4-methoxybenzyl)piperazin-1-yl)-2-azaspiro[3.3]hept-2-yl)benzamide], the IC50 was below 0.01 µM.

Consider `CC(C)c1ccccc1C1CN(C(C)C)CCN1C1CC2(CCN(c3ccc(C(=O)NS(=O)(=O)c4cc([N+](=O)[O-])c(NC[C@H]5CC[C@](C)(O)CC5)c5[nH]cnc45)c(Oc4cnc5[nH]ccc5c4)c3)CC2)C1` (some centres unmarked) [compound 041, 2-((1H-pyrrolo[2,3-b]pyrid-5-yl)oxy)-N-((7-((((1r,4r)-4-hydroxy-4-methylcyclohexyl)methyl)amino)-6-nitro-1H-benzo[d]imidazol-4-yl)sulfonyl)-4-(2-(4-isopropyl-2-(2-isopropylphenyl)piperazin-1-yl)-7-azaspiro[3.5]non-7-yl)benzamide], for which the IC50 is below 0.01 µM.

`CC(C)c1ccccc1C1CN(C(C)C)CCN1C1CC2(C1)CN(c1ccc(C(=O)NS(=O)(=O)c3cc([N+](=O)[O-])c(NCC4(F)CCN(C(C)C)CC4)c4[nH]cnc34)c(Oc3cnc4[nH]ccc4c3)c1)C2` (centres unmarked) [compound 042, 2-((1H-pyrrolo[2,3-b]pyrid-5-yl)oxy)-N-((7-(((4-fluoro-1-isopropylpiperid-4-yl)methyl)amino)-6-nitro-1H-benzo[d]imidazol-4-yl)sulfonyl)-4-(6-(4-isopropyl-2-(2-isopropylphenyl)piperazin-1-yl)-2-azaspiro[3.3]hept-2-yl)benzamide]: the IC50 is below 0.01 µM.

Regarding `CC(C)c1ccccc1C1CN(C2CCOCC2)CCN1C1CC2(CCN(c3ccc(C(=O)NS(=O)(=O)c4cc([N+](=O)[O-])c(NC[C@H]5CC[C@](C)(O)CC5)c5[nH]cnc45)c(Oc4cnc5[nH]ccc5c4)c3)CC2)C1` (some centres unmarked) [compound 043, 2-((1H-pyrrolo[2,3-b]pyrid-5-yl)oxy)-N-((7-((((1r,4r)-4-hydroxy-4-methylcyclohexyl)methyl)amino)-6-nitro-1H-benzo[d]imidazol-4-yl)sulfonyl)-4-(2-(2-(2-isopropylphenyl)-4-(tetrahydro-2H-pyran-4-yl)piperazin-1-yl)-7-azaspiro[3.5]non-7-yl)benzamide], the IC50 was below 0.01 µM.
